According to patent US20090088441A1, “Quinoline Compounds” (priority 2007, published 2009):

Legend:
[1] = molecular target: T1, GABAB(1A,2) receptor heterodimer (Homo sapiens, UniProt O75899+Q9UBS5); assay: GTPγS35 radioligand filtration-binding assay for determination of PAM potency; format: biochemical; details: membranes of CHO-K1 cells expressing GABABR1a/GABABR2; GABA dose-response with 10, 1, 0.1 and 0.01 μM PAM; concentration reducing GABA's EC50 by 50%; read-out: Mean (EC50 derived) PAM EC50
T1 construct: expressed in transfected cells; membrane preparation
T1 sequence (Q9UBS5 15-961 limits assumed): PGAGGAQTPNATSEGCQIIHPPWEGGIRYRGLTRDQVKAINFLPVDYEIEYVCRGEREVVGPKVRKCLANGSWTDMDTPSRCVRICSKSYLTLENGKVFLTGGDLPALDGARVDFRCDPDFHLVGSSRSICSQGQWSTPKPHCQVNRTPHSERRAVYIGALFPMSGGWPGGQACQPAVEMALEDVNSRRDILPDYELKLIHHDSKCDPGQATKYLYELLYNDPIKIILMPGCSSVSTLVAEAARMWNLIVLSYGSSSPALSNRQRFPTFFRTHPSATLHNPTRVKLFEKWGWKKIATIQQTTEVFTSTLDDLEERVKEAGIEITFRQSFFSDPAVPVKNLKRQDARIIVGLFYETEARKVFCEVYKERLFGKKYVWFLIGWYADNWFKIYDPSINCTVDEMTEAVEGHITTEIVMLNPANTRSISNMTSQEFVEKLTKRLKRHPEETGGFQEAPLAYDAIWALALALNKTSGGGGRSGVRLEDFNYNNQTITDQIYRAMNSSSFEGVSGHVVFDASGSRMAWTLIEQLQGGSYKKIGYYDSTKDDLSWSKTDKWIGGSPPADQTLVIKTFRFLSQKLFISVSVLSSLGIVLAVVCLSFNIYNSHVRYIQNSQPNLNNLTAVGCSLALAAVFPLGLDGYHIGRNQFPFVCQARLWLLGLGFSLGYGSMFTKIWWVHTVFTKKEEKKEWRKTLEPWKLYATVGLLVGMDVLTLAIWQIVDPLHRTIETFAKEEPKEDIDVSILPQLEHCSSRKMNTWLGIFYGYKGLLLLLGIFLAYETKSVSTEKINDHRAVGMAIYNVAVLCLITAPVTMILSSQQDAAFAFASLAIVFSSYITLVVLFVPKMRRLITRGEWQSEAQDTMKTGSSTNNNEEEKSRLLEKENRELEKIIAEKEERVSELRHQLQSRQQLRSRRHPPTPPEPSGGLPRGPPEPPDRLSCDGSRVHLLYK
T1 sequence (O75899 42-941): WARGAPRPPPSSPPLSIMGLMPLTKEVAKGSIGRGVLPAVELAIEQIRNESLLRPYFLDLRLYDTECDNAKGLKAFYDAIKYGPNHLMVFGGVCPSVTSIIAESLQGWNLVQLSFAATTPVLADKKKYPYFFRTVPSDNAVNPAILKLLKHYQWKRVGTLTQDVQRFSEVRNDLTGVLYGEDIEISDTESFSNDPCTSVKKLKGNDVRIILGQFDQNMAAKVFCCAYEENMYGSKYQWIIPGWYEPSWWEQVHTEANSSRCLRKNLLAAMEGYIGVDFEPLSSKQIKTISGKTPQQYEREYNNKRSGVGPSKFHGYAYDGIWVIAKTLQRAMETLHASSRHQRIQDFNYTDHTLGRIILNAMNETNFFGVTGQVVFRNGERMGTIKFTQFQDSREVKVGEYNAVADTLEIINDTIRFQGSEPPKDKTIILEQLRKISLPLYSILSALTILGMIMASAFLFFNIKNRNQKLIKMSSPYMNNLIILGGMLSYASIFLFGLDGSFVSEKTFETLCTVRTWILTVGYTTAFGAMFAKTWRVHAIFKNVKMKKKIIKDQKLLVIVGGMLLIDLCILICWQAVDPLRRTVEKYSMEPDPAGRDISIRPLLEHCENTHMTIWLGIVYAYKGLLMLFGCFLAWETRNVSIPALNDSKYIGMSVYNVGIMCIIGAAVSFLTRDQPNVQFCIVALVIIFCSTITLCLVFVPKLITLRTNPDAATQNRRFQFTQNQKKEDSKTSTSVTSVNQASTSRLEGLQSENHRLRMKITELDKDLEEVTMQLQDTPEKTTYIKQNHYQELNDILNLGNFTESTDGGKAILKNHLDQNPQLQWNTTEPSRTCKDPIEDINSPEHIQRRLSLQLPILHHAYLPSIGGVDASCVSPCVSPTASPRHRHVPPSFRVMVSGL
Experimental: The effect of GABA in an automated GTPγS^35 radioligand filtration-binding assay in CHO cells expressing the GABAB(1A,2) receptor heterodimer was studied in the presence or absence of the positive allosteric modulator test compounds.
(§1) The potency and efficacy of the compounds acting as agonists at the GABAB receptor was also determined in a automated GTPγS^35 radioligand filtration-binding assay.
(§2) The GABAB receptor is a G-protein coupled receptor. Binding of a ligand activates the receptor leading to recruitment of G-protein and a substitution of the G-protein bound GDP to GTP. The G-protein becomes active. The G-protein is inactivated by hydrolysis of GTP to GDP. G-proteins are membrane bound and therefore present in membrane preparations.
(§3) In the GTPγS^35 assay, GTP is not present but instead GTPγS^35 where one of the phosphate groups are substituted to a sulphur group which cannot be hydrolysed. Upon activation of the receptor, radiolabelled GTPγS^35 replaces the GDP. The complex cannot be inactivated and the radiolabelled complex is accumulating. At the end of the assay, the reaction mixture is filtered through a membrane-binding filter. Excess GTPγS^35 is removed by washing and the membrane bound S^35, which correlates to the degree of receptor activation, is measured with a β-Liquid Scintillation Counter.
GABABR1a and GABABR2 were cloned from human brain cDNA and subcloned into pCI-Neo (Promega) and pALTER-1 (Promega), respectively.
In order to optimise the Kozak consensus sequence of GABABR2, in situ mutagenesis was performed using the Altered Sites Mutagenesis kit according to manufacturer's instruction (Promega) with the following primer, 5′-[…]-3′. The optimised GABABR2 was then restricted from pALTER-1 with Xho I+Kpn I and subcloned into the mammalian expression vector pcDNA3.1 (−)/Zeo (Invitrogen) to produce the final construct, pcDNA3.1 (−)/Zeo-GABABR2.
For generation of stable cell lines, CHO-K1 cells were grown in Nut mix F-12 (Ham) media supplemented with 10% FBS, 100 U/ml Penicillin and 100 μg/ml Streptomycin at 37° C. in a humidified CO2-incubator. The cells were detached with 1 mM EDTA in PBS and 1 million cells were seeded in 100 mm petri dishes. After 24 hours the culture media was replaced with OptiMEM and incubated for 1 hour in a CO2-incubator.
For generation of a cell line expressing the GABABR1a/GABABR2 heterodimer, GABABR1a plasmid DNA ([…]) GABABR2 plasmid DNA (4 μg) and lipofectamine (24 μl) were mixed in 5 ml OptiMEM and incubated for 45 minutes at room temperature. […] After expansion, the GABAB receptor functional response was tested by measuring the GABAB receptor dependent release of intracellular calcium in a fluorescence imaging plate reader (FLIPR). […]

[2] = molecular target: T2, GABABR1a/GABABR2 heterodimer (Homo sapiens, UniProt O75899+Q9UBS5); assay: GTPγS35 radioligand filtration-binding assay for determination of agonist potency; format: biochemical; details: membranes of CHO K1 Flp-In cells expressing GABABR1a/GABABR2; 30° C., 1 hour
T2 construct: expressed in transfected cells; membrane preparation
T2 sequence (Q9UBS5 15-961 limits assumed): as the sequence (Q9UBS5 15-961 limits assumed) above
T2 sequence (O75899 42-941): as the sequence (O75899 42-941) above
Experimental: as §1, §2, §3
The human GABABR1a was subcloned into pIRESneo3 (Clontech) using GABABR1a construct as a template (refseqN NM001470). GABABR2 was subcloned into pcDNA5/FRT (Invitrogen) using GABABR2 construct as a template (refseqN NM005458). The Kozak sequence GCCACC was introduced before the start codon in both constructs.
For generation of stable cell lines, CHO K1 Flp-In cells (Invitrogen) were grown in DMEM/F12 1:1 media supplemented with 10% FBS at 37° C. in a humidified CO2-incubator. The cells were detached with Accutase and 1.5 million cells were seeded into T75 flasks. After 24 h, transfection of the cells were performed with the GABABR2 construct. For generation of cell lines expressing GABABR2, GABABR2 plasmid (1 μg) and pOG44 from Invitrogen (9 μg) were mixed with 30 μl Lipofectamine 2000 in 600 μl OptiMEM for 20 minutes. The cells were exposed to transfection medium for 5 hours and was then replaced with culture medium. After 2 days 0.5 mg/ml Hygromycin were added to culture medium. The cells were cultured for an additional 10 days to establish a stable cell mix expressing GABABR2. For generation of a cell line expressing the GABABR1a/GABABR2 hetrodimer, GABABR1a plasmid DNA (8 μg) and Lipofectamine (30 μl) were mixed in 600 μl OptiMEM and incubated for 20 minutes before added to CHO-Flp-In cells expressing GABABR2. After 2 days additional selection agent was added (0.8 mg/ml Geneticin). The cells were cultured for another 10 days to generate a stable mixed population expressing the GABABR1a/GABABR2 heterodimer. The cell line was analyzed by GTPγS^35 assay with GABA as agonist.
GTPγS^35 radioligand filtration-binding assays were performed using an automated workstation at 30° C. for 1 hour in assay buffer (50 mM HEPES, 40 mM NaCl, 1 mM MgCl2×6H2O, 30 μg/mL Saponin, pH 7.4 at RT) containing 0.025 μg/μL of membrane protein (prepared from the cell line described above), 10 μM GDP and 0.55 nCi/μL GTPγS^35 in a final volume of 60 μL. The reaction was started by the addition of compounds (GABA was always included as a positive control), start concentration 100 μM dilution factor 3. The reaction was terminated and membranes collected by addition of ice-cold wash buffer (50 mM Tris-HCl, 5 mM MgCl2×6H2O, 50 mM NaCl, pH 7.4 at 4° C.) followed by rapid filtration under vacuum through a MultiScreen HTS 384 FB filter plate. Repeated washing of the filters with ice-cold wash buffer washed the unbound radioligand away. The filter plates were dried for 1½-2 hours at 50° C., then 8 μL scintillation liquid was added per well followed by incubation at RT for at least 20 minutes before bound radioactivity was determined using a β-Liquid Scintillation Counter (1450 Microbeta Trilux, Wallac, Finland)
100% activation (max) is calculated as the mean value for wells containing 1 mM GABA. […]

| Compound | EC50 [1] [µM] | EC50 [2] [µM] |
| --- | --- | --- |
| Cc1nc2ccc(N3CCCCC3)cc2c(-c2ccc(F)cc2)c1C(C)Oc1ccc(Cl)cc1 (centres unmarked) [Example 4, 3-[1-(4-chlorophenoxy)ethyl]-4-(4-fluorophenyl)-2-methyl-6-piperidin-1-ylquinoline] | 24 | 1 |
| Cc1nc2ccc(Br)cc2c(-c2ccc(F)cc2)c1C(=O)OC(C)(C)C [Example 20, tert-butyl 6-bromo-4-(4-fluorophenyl)-2-methylquinoline-3-carboxylate] | 3.1 |  |

The next lines start with the values.

| EC50 [1] [µM] | EC50 [2] [µM] | Compound |
| --- | --- | --- |
| 9.2 | 6.5 | Cc1nc2ccc(Br)cc2c(-c2ccc(F)cc2)c1C(C)Oc1ccc(Cl)cc1 (centres unmarked) [Example 2, 6-bromo-3-[1-(4-chlorophenoxy)ethyl]-4-(4-fluorophenyl)-2-methylquinoline] |
| 18 | 1.3 | Cc1nc2ccc(N3CCCCC3)cc2c(-c2ccc(F)cc2)c1C(=O)OC(C)(C)C [Example 22, tert-butyl 4-(4-fluorophenyl)-2-methyl-6-piperidin-1-ylquinoline-3-carboxylate] |
|  | 1.8 | Cc1nc2ccc(N3CCCCC3)cc2c(-c2ccc(F)cc2)c1C(C)Oc1ccccn1 (centres unmarked) [Example 5, 4-(4-fluorophenyl)-2-methyl-6-piperidin-1-yl-3-[1-(pyridin-2-yloxy)ethyl]quinoline] |
